Laboratory results taken from EP4653437A2 (Innovo Therapeutics Inc., priority 2023, dated 2024).
pIC50: −log10 of the molar value.

biological target: T1, human 15-PGDH (Homo sapiens, UniProt P15428); assay: Evaluation of 15-PGDH inhibitory activity (fluorescence enzyme assay, NAD+/PGE2); assay type: biochemical; details: human 15-PGDH enzyme, fluorescence Vmax
T1 construct: purchased R&D System 5660-DH
T1 sequence (P15428 1-266): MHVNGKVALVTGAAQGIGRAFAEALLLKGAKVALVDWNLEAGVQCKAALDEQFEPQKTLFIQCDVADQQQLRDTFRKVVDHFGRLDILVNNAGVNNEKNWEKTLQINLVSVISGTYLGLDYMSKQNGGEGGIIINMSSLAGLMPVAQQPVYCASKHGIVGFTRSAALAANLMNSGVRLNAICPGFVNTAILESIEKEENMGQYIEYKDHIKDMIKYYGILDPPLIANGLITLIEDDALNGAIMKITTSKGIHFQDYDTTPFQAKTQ
Description: 15-PGDH inhibition activity of Example compounds was measured as follows. 6.7 ng of human 15-PGDH (R&D System# 5660-DH) enzyme (10 µL) was added to a black 96 well plate, 60 µL of buffer (50 mM Tris-HCl, pH 7.5, 0.01% Tween 20) was added, and 10 µL of 200 µM β-Nicotinamide adenine dinucleotide sodium salt (Sigma, Cat# N0632-5G) was added. 10 µL of (10x) compound solution in DMSO was added and reacted for 10 minutes at room temperature.

Compared with O=C(c1cc2nc(-c3ccc4ccccc4c3)ccc2[nH]1)N1CCCCC1 [Example 189, (5-(naphthalen-2-yl)-1H-pyrrolo[3,2-b]pyridin-2-yl)(piperidin-1-yl)methanone], COc1ccc(-c2ccc3[nH]c(C(=O)N4CCCCC4)cc3n2)cc1 [Example 179, (5-(4-methoxyphenyl)-1H-pyrrolo[3,2-b]pyridin-2-yl)(piperidin-1-yl)methanone] is higher in pIC50: under 6.00 for the first, 6.00 to 7.00 for the second. The second is the more potent here.

First: O=C(c1cc2c(-c3ccc4c(c3)OCO4)cncc2[nH]1)N1CCCCC1 [Example 175, (4-(benzo[d][1,3]dioxol-5-yl)-1H-pyrrolo[2,3-c]pyridin-2-yl)(piperidin-1-yl)methanone]
Second: O=C(c1cc2nc(-c3ccc4c(c3)OCCO4)ccc2[nH]1)N1CCCCC1 [Example 178, (5-(2,3-dihydrobenzo[b][1,4]dioxin-6-yl)-1H-pyrrolo[3,2-b]pyridin-2-yl)(piperidin-1-yl)methanone]
The pIC50 of the first is lower: under 6.00 for the first, 6.00 to 7.00 for the second.

COc1cccc(-c2cccc3c(C(=O)N4CCCCC4)cnn23)c1 [Example 4, (7-(3-methoxyphenyl)pyrazolo[1,5-a]pyridin-3-yl)(piperidin-1-yl)methanone] and O=C(c1cnn2c(-c3cccc(Cl)c3)cccc12)N1CCCCC1 [Example 2, (7-(3-chlorophenyl)pyrazolo[1,5-a]pyridin-3-yl)(piperidin-1-yl)methanone] cannot be ordered by pIC50: at least 7.00 for the first, at least 7.00 for the second.

O=C(c1cnn2c(-c3cccc([N+](=O)[O-])c3)cccc12)N1CCCCC1 [Example 5, (7-(3-nitrophenyl)pyrazolo[1,5-a]pyridin-3-yl)(piperidin-1-yl)methanone] and O=C(c1cnn2c(-c3ccccc3)cccc12)N1CCCCC1 [Example 1] cannot be ordered by pIC50: at least 7.00 for the first, at least 7.00 for the second.

CC(C)(C)OC(=O)N1CCN(C(=O)c2cccc(-c3cccc4c(C(=O)N5CCCCC5)cnn34)c2)CC1 [Example 35, tert-butyl 4-(3-(3-(piperidine-1-carbonyl)pyrazolo[1,5-a]pyridin-7-yl)benzoyl)piperazine-1-carboxylate] and O=C(c1cncc(-c2cccc3c(C(=O)N4CCCCC4)cnn23)c1)N1CC(F)(F)C1 [Example 44, (3,3-difluoroazetidin-1-yl)(5-(3-(piperidine-1-carbonyl)pyrazolo[1,5-a]pyridin-7-yl)pyridin-3-yl)methanone] cannot be ordered by pIC50: at least 7.00 for the first, at least 7.00 for the second.

O=C(Cc1cccnc1)Nc1ccc(-c2cccc3c(C(=O)N4CCCCC4)cnn23)cn1 [Example 106, N-(5-(3-(piperidine-1-carbonyl)pyrazolo[1,5-a]pyridin-7-yl)pyridin-2-yl)-2-(pyridin-3-yl)acetamide] and O=C(Nc1cccnc1)c1ccc(-c2cccc3c(C(=O)N4CCCCC4)cnn23)cc1 [Example 71, 4-(3-(piperidine-1-carbonyl)pyrazolo[1,5-a]pyridin-7-yl)-N-(pyridin-3-yl)benzamide] cannot be ordered by pIC50: at least 7.00 for the first, at least 7.00 for the second.

Going from O=C(c1c[nH]c2c(-c3cccc(Cl)c3)cccc12)N1CCCCC1 [Example 169, (7-(3-chlorophenyl)-1H-indol-3-yl)(piperidin-1-yl)methanone] to O=C(c1n[nH]c2c(-c3cccc(Cl)c3)cccc12)N1CCCCC1 [Example 161, (7-(3-chlorophenyl)-1H-indazol-3-yl)(piperidin-1-yl)methanone], the pIC50 falls from at least 7.00 to under 6.00.

CN1Cc2cc(-c3cccc4c(C(=O)N5CCCCC5)cnn34)ccc2C1=O [Example 144, 2-methyl-5-(3-(piperidine-1-carbonyl)pyrazolo[1,5-a]pyridin-7-yl)isoindolin-1-one] and CN1CCc2cc(-c3cccc4c(C(=O)N5CCCCC5)cnn34)ccc2C1=O [Example 137, 2-methyl-6-(3-(piperidine-1-carbonyl)pyrazolo[1,5-a]pyridin-7-yl)-3,4-dihydroisoquinolin-1(2H)-one] cannot be ordered by pIC50: at least 7.00 for the first, at least 7.00 for the second.

O=C(c1cc2nc(-c3ccc(O)c(Cl)c3)ccc2[nH]1)N1CCCCC1 [Example 186, (5-(3-chloro-4-hydroxyphenyl)-1H-pyrrolo[3,2-b]pyridin-2-yl)(piperidin-1-yl)methanone] and O=C(c1cc2nc(-c3ccc(Cl)cc3)ccc2[nH]1)N1CCCCC1 [Example 180, (5-(4-chlorophenyl)-1H-pyrrolo[3,2-b]pyridin-2-yl)(piperidin-1-yl)methanone] fall in the same range of pIC50: 6.00 to 7.00 for the first, 6.00 to 7.00 for the second.

O=C(c1cnn2c(-c3ccccc3)cccc12)C1CCCCC1 [Example 158, cyclohexyl(7-phenylpyrazolo[1,5-a]pyridin-3-yl)methanone] and O=C(c1cnn2c(-c3cccc4ccccc34)cccc12)N1CCCCC1 [Example 128, (7-(naphthalen-1-yl)pyrazolo[1,5-a]pyridin-3-yl)(piperidin-1-yl)methanone] cannot be ordered by pIC50: 6.00 to 7.00 for the first, at least 7.00 for the second.

O=C(c1cc2nc(N3Cc4ccccc4C3=O)ccc2[nH]1)N1CCCCC1 [Example 191, 2-(2-(piperidine-1-carbonyl)-1H-pyrrolo[3,2-b]pyridin-5-yl)isoindolin-1-one] and O=C(c1cc2nc(-c3coc4ccccc34)ccc2[nH]1)N1CCCCC1 [Example 188, (5-(benzofuran-3-yl)-1H-pyrrolo[3,2-b]pyridin-2-yl)(piperidin-1-yl)methanone] fall in the same range of pIC50: 6.00 to 7.00 for the first, 6.00 to 7.00 for the second.

O=C(c1cc2nc(-c3ccncc3)ccc2[nH]1)N1CCCCC1 [Example 184, piperidin-1-yl(5-(pyridin-4-yl)-1H-pyrrolo[3,2-b]pyridin-2-yl)methanone] and O=C(c1cc2nc(-c3ccc(F)cc3)ccc2[nH]1)N1CCCCC1 [Example 182, (5-(4-fluorophenyl)-1H-pyrrolo[3,2-b]pyridin-2-yl)(piperidin-1-yl)methanone] fall in the same range of pIC50: 6.00 to 7.00 for the first, 6.00 to 7.00 for the second.

Going from Nc1ccc(-c2cccn3c(C(=O)N4CCCCC4)cnc23)cc1 [Example 164, (8-(4-aminophenyl)imidazo[1,2-a]pyridin-3-yl)(piperidin-1-yl)methanone] to O=C(c1cnc2c(-c3ccc([N+](=O)[O-])cc3)cccn12)N1CCCCC1 [Example 163, (8-(4-nitrophenyl)imidazo[1,2-a]pyridin-3-yl)(piperidin-1-yl)methanone], the pIC50 rises from under 6.00 to at least 7.00.

Compared with Cc1nn(C)c(C)c1S(=O)(=O)Nc1cccc2c(C(=O)N3CCCCC3)cnn12 [Example 240, 1,3,5-trimethyl-N-[3-(piperidine-1-carbonyl)pyrazolo[1,5-a]pyridin-7-yl]pyrazole-4-sulfonamide], Cn1nccc1-c1cccc2c(C(=O)N3CCCCC3)cnn12 [Example 25, (7-(1-methyl-1H-pyrazol-5-yl)pyrazolo[1,5-a]pyridin-3-yl)(piperidin-1-yl)methanone] is higher in pIC50: under 6.00 for the first, at least 7.00 for the second. The second is the more potent here.

O=C(c1cnn2c(-c3ccc4cn[nH]c4c3)cccc12)N1CCCCC1 [Example 125, (7-(1H-indazol-6-yl)pyrazolo[1,5-a]pyridin-3-yl)(piperidin-1-yl)methanone] and O=C(c1cnn2c(-c3ccc4[nH]ccc4c3)cccc12)N1CCCCC1 [Example 126, (7-(1H-indol-5-yl)pyrazolo[1,5-a]pyridin-3-yl)(piperidin-1-yl)methanone] cannot be ordered by pIC50: at least 7.00 for the first, at least 7.00 for the second.

COc1ccc(-c2ccc3c(C(=O)N4CCCCC4)cnn3c2)cc1 [Example 171, (6-(4-methoxyphenyl)pyrazolo[1,5-a]pyridin-3-yl)(piperidin-1-yl)methanone] and COC(=O)c1ccc(-c2cccc3c(C(=O)N4CCCCC4)cnn23)cc1 [Example 11, methyl 4-(3-(piperidine-1-carbonyl)pyrazolo[1,5-a]pyridin-7-yl)benzoate] cannot be ordered by pIC50: at least 7.00 for the first, at least 7.00 for the second.

Compared with O=C(c1cc2nc(-c3ccoc3)ccc2[nH]1)N1CCCCC1 [Example 183, (5-(furan-3-yl)-1H-pyrrolo[3,2-b]pyridin-2-yl)(piperidin-1-yl)methanone], O=C(c1cc2nc(-c3ccc4cn[nH]c4c3)ccc2[nH]1)N1CCCCC1 [Example 190, (5-(1H-indazol-6-yl)-1H-pyrrolo[3,2-b]pyridin-2-yl)(piperidin-1-yl)methanone] is higher in pIC50: under 6.00 for the first, at least 7.00 for the second.

First: O=C(c1cc2c(-c3ccc4c(c3)OCO4)ncnn2c1)N1CCCCC1 [Example 176, (4-(benzo[d][1,3]dioxol-5-yl)pyrrolo[2,1-f][1,2,4]triazin-6-yl)(piperidin-1-yl)methanone]
Second: Cc1cc(-c2cccc(Cl)c2)c2ncc(C(=O)N3CCCCC3)n2c1 [Example 165, (8-(3-chlorophenyl)-6-methylimidazo[1,2-a]pyridin-3-yl)(piperidin-1-yl)methanone]
The pIC50 of the first is lower: under 6.00 for the first, 6.00 to 7.00 for the second. The second is the more potent here.

O=C(c1cnn2c(-c3ccc(C(F)(F)F)nc3Cl)cccc12)N1CCCCC1 [Example 272, (7-(2-chloro-6-(trifluoromethyl)pyridin-3-yl)pyrazolo[1,5-a]pyridin-3-yl)(piperidin-1-yl)methanone] and Cn1ccc2ccc(-c3cccc4c(C(=O)N5CCCCC5)cnn34)cc2c1=O [Example 135, 2-methyl-7-(3-(piperidine-1-carbonyl)pyrazolo[1,5-a]pyridin-7-yl)isoquinolin-1(2H)-one] cannot be ordered by pIC50: at least 7.00 for the first, at least 7.00 for the second.

O=C(c1cncc(-c2cccc3c(C(=O)N4CCCCC4)cnn23)c1)N1CC2(CCC2)C1 [Example 43, (7-(5-(2-azaspiro[3.3]heptane-2-carbonyl)pyridin-3-yl)pyrazolo[1,5-a]pyridin-3-yl)(piperidin-1-yl)methanone] and COc1ccc(-c2ccc3[nH]c(C(=O)N4CCCCC4)cc3n2)cc1OC [Example 181, (5-(3,4-dimethoxyphenyl)-1H-pyrrolo[3,2-b]pyridin-2-yl)(piperidin-1-yl)methanone] cannot be ordered by pIC50: at least 7.00 for the first, 6.00 to 7.00 for the second.
